Legend:
Format in all cases: physicochemical
[1] = Water sorption by dynamic vapour sorption (DVS)
[2] = Stability in water solutions (pH not adjusted), HPLC assay
Source text: (§1) The stability of [5-Methyl-8-(4-methylpiperazin-1-yl)-1,2,3,4-tetrahydro-2-naphtyl]-4-morpholinobenzamide(=“Base” in tables below) and (R)-N-[5-methyl-8-(4-methylpiperazin-1-yl)-1,2,3,4-tetrahydro-2-naphtyl]-4-morpholinobenzamide monohydrobromide Form A (=“Form A” in tables below), as bulk drug substance and in solutions at different pH levels after exposure to daylight and at elevated temperatures, has been studied. Three solutions were made from each batch of drug substance. One solution in pure water, one in 0.1 mM HCl (pH 4.1) and one in 0.1 M HCl (pH 1.1). The content of [5-Methyl-8-(4-methylpiperazin-1-yl)-1,2,3,4-tetrahydro-2-naphtyl]-4-morpholinobenzamide (=Base) was determined by HPLC, all results are calculated as the base.

[3] = Stability of solution in 0.1 mM HCl, pH 4.1, HPLC assay
Source text: as §1

[4] = Stability of bulk drug substance (HPLC purity) in daylight and at 90° C.; conditions: for HPLC Purity (100% - related substances): bulk
Protocol: The stability of [5-Methyl-8-(4-methylpiperazin-1-yl)-1,2,3,4-tetrahydro-2-naphtyl]-4-morpholinobenzamide(=“Base” in tables below) and (R)-N-[5-methyl-8-(4-methylpiperazin-1-yl)-1,2,3,4-tetrahydro-2-naphtyl]-4-morpholinobenzamide monohydrobromide Form A (=“Form A” in tables below), as bulk drug substance and in solutions at different pH levels after exposure to daylight and at elevated temperatures, has been studied. The bulk substances are very stable, both in daylight and at 90° C. There are no significant differences between the HPLC purity of [5-Methyl-8-(4-methylpiperazin-1-yl)-1,2,3,4-tetrahydro-2-naphtyl]-4-morpholinobenzamide (=Base) and (R)-N-[5-methyl-8-(4-methylpiperazin-1-yl)-1,2,3,4-tetrahydro-2-naphtyl]-4-morpholinobenzamide monohydrobromide Form A (=Form A) at the tested conditions.

[5] = Stability of solution in 0.1 M HCl, pH 1.1, HPLC assay
Source text: as §1

[6] = Solubility in water by HPLC-analysis
[7] = daylight RT, 14 days, % of start
[8] = daylight RT, 23 days, % of start

For `Br.Cc1ccc(N2CCN(C)CC2)c2c1CC[C@@H](NC(=O)c1ccc(N3CCOCC3)cc1)C2` [Form A, (R)-N-[5-methyl-8-(4-methylpiperazin-1-yl)-1,2,3,4-tetrahydro-2-naphtyl]-4-morpholinobenzamide monohydrobromide], the “water sorbed as measured by dynamic vapour sorption (DVS)” value ([1]; 80% RH and 25° C.) was 0,8%, the “hygroscopicity / water uptake in words” value ([1]; solid state characterization, monohydrobromide) was “non-hygroscopic” and the “Stability in water solutions, assay” value ([2]; 5° C., 8 days, % of start) was 101%. The “Stability in water solutions, assay” value ([2]; 5° C., 14 days, % of start) was 100%, the “Stability in water solutions, assay” value ([2]; 5° C., 23 days, % of start) was 99% and the “Stability in water solutions, assay” value ([2]; 5° C., Start) was 0.0248 mg base/ml. For the same compound, the “Stability in water solutions, assay” value ([2]; 5° C., Start, % of start) was “(100%)”, the “Stability in water solutions, assay” value ([2]; 60° C., 2 days, % of start) was 84% and the “Stability in water solutions, assay” value ([2]; 60° C., 8 days, % of start) was 81%. The “Stability in water solutions, assay” value ([2]; 60° C., 14 days, % of start) was 76%, the “Stability in water solutions, assay” value ([2]; 60° C., 23 days, % of start) was 82% and the “Stability in water solutions, assay” value ([2]; 60° C., Start) was 0.0248 mg base/ml. The “Stability in water solutions, assay” value ([2]; 60° C., Start, % of start) was “(100%)”, the “stability in pure water solution, comparison in words” value ([2]; 60° C., pH not adjusted) was “less stable than the Base” and the “Stability in water solutions, assay” value ([2]; Dark RT, 8 days, % of start) was 99%. The “Stability in water solutions, assay” value ([2]; Dark RT, 14 days, % of start) was 99%, the “Stability in water solutions, assay” value ([2]; Dark RT, 23 days, % of start) was 97% and the “Stability in water solutions, assay” value ([2]; Dark RT, Start) was 0.0248 mg base/ml. For the same compound, the “Stability in water solutions, assay” value ([2]; Dark RT, Start, % of start) was “(100%)”, the “Stability in water solutions, assay” value ([2]; daylight RT, 8 days, % of start) was 100% and the “Stability in water solutions, assay” value [2, 7] was 101%. The “Stability in water solutions, assay” value [2, 8] was 100%, the “Stability in water solutions, assay” value ([2]; daylight RT, Start) was 0.0248 mg base/ml and the “Stability in water solutions, assay” value ([2]; daylight RT, Start, % of start) was “(100%)”. For the same compound, the “Solution in 0.1 mM HCl, pH 4.1, assay” value ([3]; 5° C., 8 days, % of start) was 100%, the “Solution in 0.1 mM HCl, pH 4.1, assay” value ([3]; 5° C., 14 days, % of start) was 100% and the “Solution in 0.1 mM HCl, pH 4.1, assay” value ([3]; 5° C., 23 days, % of start) was 100%. The “Solution in 0.1 mM HCl, pH 4.1, assay” value ([3]; 5° C., Start) was 0.0490 mg base/ml, the “Solution in 0.1 mM HCl, pH 4.1, assay” value ([3]; 5° C., Start, % of start) was “(100%)” and the “Solution in 0.1 mM HCl, pH 4.1, assay” value ([3]; 60° C., 2 days, % of start) was 97%. For the same compound, the “Solution in 0.1 mM HCl, pH 4.1, assay” value ([3]; 60° C., 8 days, % of start) was 93%, the “Solution in 0.1 mM HCl, pH 4.1, assay” value ([3]; 60° C., 14 days, % of start) was 90% and the “Solution in 0.1 mM HCl, pH 4.1, assay” value ([3]; 60° C., 23 days, % of start) was 81%. The “Solution in 0.1 mM HCl, pH 4.1, assay” value ([3]; 60° C., Start) was 0.0490 mg base/ml, the “Solution in 0.1 mM HCl, pH 4.1, assay” value ([3]; 60° C., Start, % of start) was “(100%)” and the “Solution in 0.1 mM HCl, pH 4.1, assay” value ([3]; Dark RT, 8 days, % of start) was 99%. The “Solution in 0.1 mM HCl, pH 4.1, assay” value ([3]; Dark RT, 14 days, % of start) was 99%, the “Solution in 0.1 mM HCl, pH 4.1, assay” value ([3]; Dark RT, 23 days, % of start) was 98% and the “Solution in 0.1 mM HCl, pH 4.1, assay” value ([3]; Dark RT, Start) was 0.0490 mg base/ml. The “Solution in 0.1 mM HCl, pH 4.1, assay” value ([3]; Dark RT, Start, % of start) was “(100%)”, the “Solution in 0.1 mM HCl, pH 4.1, assay” value [3, 7] was 99% and the “Solution in 0.1 mM HCl, pH 4.1, assay” value [3, 8] was 97%. For the same compound, the “Solution in 0.1 mM HCl, pH 4.1, assay” value ([3]; daylight RT, Start) was 0.0490 mg base/ml, the “Solution in 0.1 mM HCl, pH 4.1, assay” value ([3]; daylight RT, Start, % of start) was “(100%)” and the “stability in solution in words” value ([3]; pH 4.1, except at 60° C.) was “good”. For the same compound, the “HPLC Purity (100% - related substances)” value ([4]; 90° C., 2 days) was 99.6%, the “HPLC Purity (100% - related substances)” value ([4]; 90° C., 8 days) was 99.6% and the “HPLC Purity (100% - related substances)” value ([4]; 90° C., 14 days) was 99.5%. The “HPLC Purity (100% - related substances)” value ([4]; 90° C., 21 days) was 99.6%, the “HPLC Purity (100% - related substances)” value ([4]; 90° C., 30 days) was 99.4% and the “HPLC Purity (100% - related substances)” value ([4]; 90° C., Start) was 99.7%. For the same compound, the “HPLC Purity (100% - related substances)” value ([4]; daylight, RT, 8 days) was 99.6%, the “HPLC Purity (100% - related substances)” value ([4]; daylight, RT, 14 days) was 99.5% and the “HPLC Purity (100% - related substances)” value ([4]; daylight, RT, 21 days) was 99.5%. The “HPLC Purity (100% - related substances)” value ([4]; daylight, RT, 30 days) was 99.5%, the “HPLC Purity (100% - related substances)” value ([4]; daylight, RT, Start) was 99.7% and the “stability of bulk substance in words” value ([4]; in daylight and at 90° C.) was “very stable”. For the same compound, the “Solution in 0.1 M HCl, pH 1.1, assay” value ([5]; 5° C., 8 days, % of start) was 100%, the “Solution in 0.1 M HCl, pH 1.1, assay” value ([5]; 5° C., 14 days, % of start) was 100% and the “Solution in 0.1 M HCl, pH 1.1, assay” value ([5]; 5° C., 23 days, % of start) was 98%. The “Solution in 0.1 M HCl, pH 1.1, assay” value ([5]; 5° C., Start) was 0.504 mg base/ml, the “Solution in 0.1 M HCl, pH 1.1, assay” value ([5]; 5° C., Start, % of start) was “(100%)” and the “Solution in 0.1 M HCl, pH 1.1, assay” value ([5]; 60° C., 2 days, % of start) was 100%. For the same compound, the “Solution in 0.1 M HCl, pH 1.1, assay” value ([5]; 60° C., 8 days, % of start) was 97%, the “Solution in 0.1 M HCl, pH 1.1, assay” value ([5]; 60° C., 14 days, % of start) was 95% and the “Solution in 0.1 M HCl, pH 1.1, assay” value ([5]; 60° C., 23 days, % of start) was 88%. The “Solution in 0.1 M HCl, pH 1.1, assay” value ([5]; 60° C., Start) was 0.504 mg base/ml, the “Solution in 0.1 M HCl, pH 1.1, assay” value ([5]; 60° C., Start, % of start) was “(100%)” and the “Solution in 0.1 M HCl, pH 1.1, assay” value ([5]; Dark RT, 8 days, % of start) was 101%. The “Solution in 0.1 M HCl, pH 1.1, assay” value ([5]; Dark RT, 14 days, % of start) was 99%, the “Solution in 0.1 M HCl, pH 1.1, assay” value ([5]; Dark RT, 23 days, % of start) was 98% and the “Solution in 0.1 M HCl, pH 1.1, assay” value ([5]; Dark RT, Start) was 0.504 mg base/ml. The “Solution in 0.1 M HCl, pH 1.1, assay” value ([5]; Dark RT, Start, % of start) was “(100%)”, the “Solution in 0.1 M HCl, pH 1.1, assay” value [5, 7] was 100% and the “Solution in 0.1 M HCl, pH 1.1, assay” value [5, 8] was 98%. For the same compound, the “Solution in 0.1 M HCl, pH 1.1, assay” value ([5]; daylight RT, Start) was 0.504 mg base/ml, the “Solution in 0.1 M HCl, pH 1.1, assay” value ([5]; daylight RT, Start, % of start) was “(100%)” and the “stability in solution in words” value ([5]; pH 1.1, except at 60° C.) was “good”. For the same compound, the “solubility in water in words” value [6] was “satisfactory” and the solubility in water ([6]; as the free base by HPLC-analysis) was 6400 µg/mL.

Reference: patent publication US20030166653A1, “Novel form of (r)-n-[5-methyl-8-(4-methylpiperazin-1-yl)-1,2,3,4-tetrahydro-2-naphthyl]-4-morpholinobenzamide” (priority 2003, published 2003)
